{
  "source": "paper PMC6838110",
  "about": "(Nature Communications, 2019)",
  "key": {"A549 cells": {"tested_on": "A549 cells", "assay": "Colony formation assay with ionizing radiation", "assay_type": "cell-based, human", "description": "(§1) page 32: […] Plates were then washed 2x with PBS, incubated with 20 µL of antibody solution containing […] incubated at RT for 2 hours. Plates were washed 3x with PBS before imaging on the CV7000 high-content imaging platform (Yokogawa). Following image acquisition, images were exported to the ColumbusTM image data storage and analysis system (Perkin Elmer). Optimized image algorithms were used to evaluate phenotypic response s using nuclear staining with Hoechst (cell cycle, micronuclei, nuclear fragmentation ), as well as to quantify the response of DNA damage response markers (foci numbers and total signal […] SDS-PAGE and Western blotting of samples Protein lysates were generated by scraping cells in radioimmunoprecipitation assay […] and protease and phosphatase inhibitor tablets (Roche) following compound treatments at indicated time points. Protein concentration was determined using the BCA protein assay kit (ThermoFisher). Proteins were separated by SDS -PAGE on NuPAGE® 4-12% […] membranes using the iBlot ® dry blotting system (ThermoFisher). Membranes were […] and incubated with primary antibody overnight at 4°C. Membranes were then washed with TBS-T and incubated with HRP-conjugated anti-rabbit or anti-mouse antibodies for 1 hour at RT. Proteins were detected by incubating membranes with SuperSignalTM Dura extended-duration substrate (ThermoFisher) and visualiz ed using the G:BOX ChemiGenius imaging system (Syngene). Band intensities were quantified using Syngene Genetools software. For analysis o f in vivo samples, a two-sided t-test was performed on logged data assuming unequal variance. A list of all antibodies used in this study can be found in Supplementary Table 5. Colony formation assay Cells were plated at low density into six-well plates in 3 mL medium (500 cells for A549, NCI-H1299 and FaDu WT, 4000 cells for FaDu ATM […]) and incubated overnight. Cell plating numbers were adjusted for higher IR doses to compensate for cell kill. […] Cell colonies were washed with […] acetic acid for >10 minutes. Excess stain was removed by washing with water. Surviving colonies (>50 cells) were counted using the GelCountTM colony counter (Oxford Optronix). Mean surviving colonies were calculated from three technical replicates. […] fraction. […] 33"}, "NCI-H1299 cells": {"tested_on": "NCI-H1299 cells", "assay": "Colony formation assay with ionizing radiation", "assay_type": "cell-based, human", "conditions": "for DEF37 Mean / DEF37 n1 / DEF37 n2: NCI-H1299", "description": "as §1"}, "[1]": {"tested_on": "UWB1.289 and DLD1 BRCA2 KO cells", "assay": "Live/Dead assay, AZD7648 monotherapy, BRCA1/BRCA2 isogenic pairs", "assay_type": "cell-based", "conditions": "7 days treatment", "from_the_text": "by Live/Dead assay in A) UWB1.289 and UWB1.289 complemented with wild-type BRCA1 (UWB1.289 + BRCA1), DLD1 and DLD1 with the BRCA2 gene knocked out (DLD1 BRCA2 KO), and B) FaDu and A549 cells with the ATM gene knocked out (ATM KO) compared with their WT counterpart. Graphs represent percentage viable cells ± SD following 7 days’ treatment relative to DMSO vehicle-treated controls from one representative experiment of at least three independent experiments. Tables describe […]\nand A549 ATM KO cells compared with their WT counterparts following 7 days’ treatment.\nMean pGI50 (–log [GI50]) ± SEM, geometric mean GI50, number of experimental repeats (n) and 95% confidence interval are described. C) Colony formation assay was performed on FaDu and A549 ATM KO and WT cells treated with increasing concentrations of olaparib. Graphs represent percentage surviving fraction of colonies ± SD following 10– 14 days’ treatment relative to DMSO vehicle-treated control from one representative experiment of three independent experiments. […] Mean pIC50\n± SEM, geometric mean IC50, number of experimental repeats (n) and 95% confidence […]\n8–14 days or with increasing concentrations of olaparib. Cell colonies were washed with […]\nMean surviving colonies were calculated from three technical replicates. […]\nbefore survival fraction was calculated. […]\nand quantified using the Acumen ® Cellista (TTP Labtech). […]"}, "[2]": {"tested_on": "FaDu ATM KO xenograft model", "assay": "Pharmacodynamic biomarkers by western blot", "assay_type": "in vivo, mice", "conditions": "30 min after 75 mg kg−1 dose of AZD7648", "from_the_text": "(1 picture or pasted object on this page, not shown here)\ntreatment groups when mean tumour volume reached ~0.2 cm 3."}},
  "data": [
    {"smiles": "Cc1cc2ncnn2cc1Nc1ncc2c(n1)n(C1CCOCC1)c(=O)n2C", "note": "[AZD7648]", "values": [
      {"measurement": "DEF37 Mean", "setting": "A549 cells; AZD7648 0.025 μM + IR", "value": 1.2},
      {"measurement": "DEF37 n1", "setting": "A549 cells; AZD7648 0.025 μM + IR", "value": 1.3},
      {"measurement": "DEF37 n2", "setting": "A549 cells; AZD7648 0.025 μM + IR", "value": 1.2},
      {"measurement": "DEF37 Mean", "setting": "A549 cells; AZD7648 0.1 μM + IR", "value": 1.7},
      {"measurement": "DEF37 n1", "setting": "A549 cells; AZD7648 0.1 μM + IR", "value": 1.4},
      {"measurement": "DEF37 n2", "setting": "A549 cells; AZD7648 0.1 μM + IR", "value": 1.9},
      {"measurement": "Mean DEF37", "setting": "A549 cells; AZD7648 1 μM + IR (Fig. 1e)", "value": 5.1},
      {"measurement": "DEF37 Mean", "setting": "A549 cells; AZD7648 1.21 μM + IR", "value": 5.1},
      {"measurement": "DEF37 n1", "setting": "A549 cells; AZD7648 1.21 μM + IR", "value": 3.2},
      {"measurement": "DEF37 n2", "setting": "A549 cells; AZD7648 1.21 μM + IR", "value": 7.0},
      {"measurement": "Mean DEF37", "setting": "NCI-H1299 cells; H1299, AZD7648 1 μM + IR (Fig. 1e)", "value": 7.4},
      {"measurement": "DEF37 Mean", "setting": "NCI-H1299 cells; AZD7648 0.025 μM + IR", "value": 1.3},
      {"measurement": "DEF37 n1", "setting": "NCI-H1299 cells; AZD7648 0.025 μM + IR", "value": 1.2},
      {"measurement": "DEF37 n2", "setting": "NCI-H1299 cells; AZD7648 0.025 μM + IR", "value": 1.3},
      {"measurement": "DEF37 Mean", "setting": "NCI-H1299 cells; AZD7648 0.1 μM + IR", "value": 2.5},
      {"measurement": "DEF37 n1", "setting": "NCI-H1299 cells; AZD7648 0.1 μM + IR", "value": 2.9},
      {"measurement": "DEF37 Mean", "setting": "NCI-H1299 cells; AZD7648 1.21 μM + IR", "value": 7.4},
      {"measurement": "DEF37 n1", "setting": "NCI-H1299 cells; AZD7648 1.21 μM + IR", "value": 7.9},
      {"measurement": "DEF37 n2", "setting": "NCI-H1299 cells; AZD7648 1.21 μM + IR", "value": 7.0},
      {"measurement": "effect of loss of BRCA1 or BRCA2 on sensitivity to monotherapy", "setting": "[1]", "value": "did not sensitize"},
      {"measurement": "reduction of pDNA-PKcs Ser2056, γH2AX and pRPA32 Ser4/Ser8", "setting": "[2]", "value": "~ 80%"}
    ]}
  ]
}
